Consider four compounds from paper PMC2804440 (Neuron, 2009).

Structures are written as SMILES.

The target of assay [1] is T1, LGC-55 (Caenorhabditis elegans, UniProt G5EEC1).
T1 sequence (G5EEC1 17-538): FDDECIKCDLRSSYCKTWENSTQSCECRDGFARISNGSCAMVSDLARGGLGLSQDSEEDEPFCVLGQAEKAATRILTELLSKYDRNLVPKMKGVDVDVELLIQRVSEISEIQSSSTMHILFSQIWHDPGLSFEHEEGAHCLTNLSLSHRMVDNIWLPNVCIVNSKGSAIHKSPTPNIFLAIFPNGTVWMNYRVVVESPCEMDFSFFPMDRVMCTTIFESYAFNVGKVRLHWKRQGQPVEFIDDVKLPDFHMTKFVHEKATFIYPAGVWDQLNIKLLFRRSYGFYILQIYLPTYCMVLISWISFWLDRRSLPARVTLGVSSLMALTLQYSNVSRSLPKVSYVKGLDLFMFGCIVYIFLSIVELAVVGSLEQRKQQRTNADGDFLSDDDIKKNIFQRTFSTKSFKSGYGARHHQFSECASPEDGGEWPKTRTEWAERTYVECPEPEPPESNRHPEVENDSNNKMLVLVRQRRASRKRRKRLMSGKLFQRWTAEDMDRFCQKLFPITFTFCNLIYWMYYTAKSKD
The assay is described as follows: two-electrode voltage clamp, Xenopus oocytes. The class given is cell-based. (In general: In two-electrode clamp one electrode senses voltage and the other passes current.)

Assay [2] addresses T1, LGC-55. The assay is described as follows: two-electrode voltage clamp, Xenopus oocytes. In kind it is cell-based. Conditions: weak agonist; ND96, -60 mV, 10 s application, 22-24 °C.

In the case of `NC[C@H](O)c1ccc(O)cc1` [octopamine], the EC50 at LGC-55 [1] came out at 215.2 ± 1.1 µM.
In turn, `NCCc1ccc(O)c(O)c1` [dopamine] returned an EC50 on LGC-55 [1] of 158.8 ± 1.1 µM.
Turning to `NCCc1ccc(O)cc1` [tyramine], the EC50 on LGC-55 [1] came out at 12.1 ± 1.2 µM.
Regarding `NCCc1c[nH]c2ccc(O)cc12` [serotonin], on LGC-55 [2], the “small inward currents at millimolar concentrations” value is given as “serotonin only elicited small LGC-55-dependent inward currents at millimolar concentrations”.

The term EC50 denotes the concentration that produces a half-maximal response. Higher therefore signals a less potent agent.
